Data taken from ChEMBL document CHEMBL1687815, “In vivo selection of a missense mutation in adeR and conversion of the novel blaOXA-164 gene into blaOXA-58 in carbapenem-resistant Acinetobacter baumannii isolates from a hospitalized patient” (2010).
In brackets after ≈: the same amount, converted by molar mass. Values belong to the molecule of their own block, whether it stands above or below them. Activity calls are given as the source filed them. The rule behind the calls is not given here.

Experiments:
[1] = test system: Acinetobacter baumannii; test: Antimicrobial activity against Acinetobacter baumannii ATCC 17978 harboring beta-lactamase OXA-164 by Etest; type: functional
[2] = test system: Acinetobacter baumannii; test: Antimicrobial activity against Acinetobacter baumannii isolate K expressing beta-lactamase OXA-58 isolated from blood culture of patient by vitek 2 system
[3] = test system: Acinetobacter baumannii; test: Antimicrobial activity against Acinetobacter baumannii isolate E expressing beta-lactamase OXA-164 isolated from tracheal secretion of patient by vitek 2 system
[4] = test system: Acinetobacter baumannii; test: Antimicrobial activity against Acinetobacter baumannii isolate A expressing beta-lactamase OXA-164 isolated from tracheal secretion of patient by Etest
[5] = test system: Acinetobacter baumannii; test: Antimicrobial activity against Acinetobacter baumannii isolate M expressing beta-lactamase OXA-58 isolated from tracheal secretion of patient by vitek 2 system
[6] = test system: Acinetobacter baumannii; test: Antimicrobial activity against Acinetobacter baumannii isolate H expressing beta-lactamase OXA-58 isolated from tracheal secretion of patient by Etest
[7] = test system: Acinetobacter baumannii; test: Antimicrobial activity against Acinetobacter baumannii isolate K expressing beta-lactamase OXA-58 isolated from blood culture of patient by Etest
[8] = test system: Escherichia coli; test: Antimicrobial activity against Escherichia coli NEB 5-alpha harboring beta-lactamase OXA-58 by Etest; type: functional
[9] = test system: Acinetobacter baumannii; test: Antimicrobial activity against Acinetobacter baumannii isolate D expressing beta-lactamase OXA-164 isolated from tracheal secretion of patient by vitek 2 system
[10] = test system: Acinetobacter baumannii; test: Antimicrobial activity against Acinetobacter baumannii isolate I expressing beta-lactamase OXA-58 isolated from tracheal secretion of patient by vitek 2 system
[11] = test system: Acinetobacter baumannii; test: Antimicrobial activity against Acinetobacter baumannii isolate E expressing beta-lactamase OXA-164 isolated from tracheal secretion of patient by Etest
[12] = test system: Acinetobacter baumannii; test: Antimicrobial activity against Acinetobacter baumannii ATCC 17978 harboring beta-lactamase OXA-58 by Etest; type: functional
[13] = test system: Acinetobacter baumannii; test: Antimicrobial activity against Acinetobacter baumannii isolate J expressing beta-lactamase OXA-58 isolated from bedsore by Etest
[14] = test system: Acinetobacter baumannii; test: Antimicrobial activity against Acinetobacter baumannii isolate L expressing beta-lactamase OXA-58 isolated from tracheal secretion of patient by vitek 2 system
[15] = test system: Acinetobacter baumannii; test: Antimicrobial activity against Acinetobacter baumannii isolate M expressing beta-lactamase OXA-58 isolated from tracheal secretion of patient by Etest
[16] = test system: Acinetobacter baumannii; test: Antimicrobial activity against Acinetobacter baumannii isolate G expressing beta-lactamase OXA-58 isolated from tracheal secretion of patient by vitek 2 system
[17] = test system: Acinetobacter baumannii; test: Antimicrobial activity against Acinetobacter baumannii isolate H expressing beta-lactamase OXA-58 isolated from tracheal secretion of patient by vitek 2 system
[18] = test system: Acinetobacter baumannii; test: Antimicrobial activity against Acinetobacter baumannii isolate F expressing beta-lactamase OXA-164 isolated from tracheostoma of patient by Etest
[19] = test system: Acinetobacter baumannii; test: Antimicrobial activity against Acinetobacter baumannii isolate I expressing beta-lactamase OXA-58 isolated from tracheal secretion of patient by Etest
[20] = test system: Acinetobacter baumannii; test: Antimicrobial activity against Acinetobacter baumannii isolate B expressing beta-lactamase OXA-164 isolated from tracheal secretion of patient by Etest
[21] = test system: Acinetobacter baumannii; test: Antimicrobial activity against Acinetobacter baumannii isolate L expressing beta-lactamase OXA-58 isolated from tracheal secretion of patient by Etest
[22] = test system: Acinetobacter baumannii; test: Antimicrobial activity against Acinetobacter baumannii isolate F expressing beta-lactamase OXA-164 isolated from tracheostoma of patient by vitek 2 system
[23] = test system: Escherichia coli; test: Antimicrobial activity against Escherichia coli NEB 5-alpha harboring plasmid WH1266 by Etest; type: functional
[24] = test system: Acinetobacter baumannii; test: Antimicrobial activity against Acinetobacter baumannii isolate C expressing beta-lactamase OXA-164 isolated from tracheal secretion of patient by vitek 2 system
[25] = test system: Acinetobacter baumannii; test: Antimicrobial activity against Acinetobacter baumannii isolate C expressing beta-lactamase OXA-164 isolated from tracheal secretion of patient by Etest
[26] = test system: Acinetobacter baumannii; test: Antimicrobial activity against Acinetobacter baumannii ATCC 19606 harboring beta-lactamase OXA-58 by Etest; type: functional; conditions: ATCC 19606 = CIP 70.34 = JCM 6841
[27] = test system: Escherichia coli; test: Antimicrobial activity against Escherichia coli NEB 5-alpha harboring beta-lactamase OXA-164 by Etest; type: functional
[28] = test system: Acinetobacter baumannii; test: Antimicrobial activity against Acinetobacter baumannii ATCC 19606 harboring beta-lactamase OXA-164 by Etest; type: functional; conditions: ATCC 19606 = CIP 70.34 = JCM 6841
[29] = test system: Acinetobacter baumannii; test: Antimicrobial activity against Acinetobacter baumannii isolate A expressing beta-lactamase OXA-164 isolated from tracheal secretion of patient by vitek 2 system
[30] = test system: Acinetobacter baumannii; test: Antimicrobial activity against Acinetobacter baumannii ATCC 17978 harboring plasmid WH1266 by Etest; type: functional
[31] = test system: Acinetobacter baumannii; test: Antimicrobial activity against Acinetobacter baumannii ATCC 19606 harboring plasmid WH1266 by Etest; type: functional; conditions: ATCC 19606 = CIP 70.34 = JCM 6841
[32] = test system: Acinetobacter baumannii; test: Antimicrobial activity against Acinetobacter baumannii isolate G expressing beta-lactamase OXA-58 isolated from tracheal secretion of patient by Etest
[33] = test system: Acinetobacter baumannii; test: Antimicrobial activity against Acinetobacter baumannii isolate D expressing beta-lactamase OXA-164 isolated from tracheal secretion of patient by Etest
[34] = test system: Acinetobacter baumannii; test: Antimicrobial activity against Acinetobacter baumannii isolate B expressing beta-lactamase OXA-164 isolated from tracheal secretion of patient by vitek 2 system
[35] = test system: Acinetobacter baumannii; test: Antimicrobial activity against Acinetobacter baumannii isolate J expressing beta-lactamase OXA-58 isolated from bedsore by vitek 2 system
[36] = test system: Acinetobacter baumannii; test: Antimicrobial activity against Acinetobacter baumannii isolate I expressing beta-lactamase OXA-58 isolated from tracheal secretion of patient in presence of Tazobactam by vitek 2 system
[37] = test system: Acinetobacter baumannii; test: Antimicrobial activity against Acinetobacter baumannii isolate E expressing beta-lactamase OXA-164 isolated from tracheal secretion of patient in presence of Tazobactam by vitek 2 system
[38] = test system: Acinetobacter baumannii; test: Antimicrobial activity against Acinetobacter baumannii isolate F expressing beta-lactamase OXA-164 isolated from tracheostoma of patient in presence of Tazobactam by vitek 2 system
[39] = test system: Acinetobacter baumannii; test: Antimicrobial activity against Acinetobacter baumannii isolate B expressing beta-lactamase OXA-164 isolated from tracheal secretion of patient in presence of Tazobactam by vitek 2 system
[40] = test system: Acinetobacter baumannii; test: Antimicrobial activity against Acinetobacter baumannii isolate L expressing beta-lactamase OXA-58 isolated from tracheal secretion of patient in presence of Tazobactam by vitek 2 system
[41] = test system: Acinetobacter baumannii; test: Antimicrobial activity against Acinetobacter baumannii isolate K expressing beta-lactamase OXA-58 isolated from blood culture of patient in presence of Tazobactam by vitek 2 system
[42] = test system: Acinetobacter baumannii; test: Antimicrobial activity against Acinetobacter baumannii isolate D expressing beta-lactamase OXA-164 isolated from tracheal secretion of patient in presence of Tazobactam by vitek 2 system
[43] = test system: Acinetobacter baumannii; test: Antimicrobial activity against Acinetobacter baumannii isolate G expressing beta-lactamase OXA-58 isolated from tracheal secretion of patient in presence of Tazobactam by vitek 2 system
[44] = test system: Acinetobacter baumannii; test: Antimicrobial activity against Acinetobacter baumannii isolate J expressing beta-lactamase OXA-58 isolated from bedsore in presence of Tazobactam by vitek 2 system
[45] = test system: Acinetobacter baumannii; test: Antimicrobial activity against Acinetobacter baumannii isolate H expressing beta-lactamase OXA-58 isolated from tracheal secretion of patient in presence of Tazobactam by vitek 2 system
[46] = test system: Acinetobacter baumannii; test: Antimicrobial activity against Acinetobacter baumannii isolate A expressing beta-lactamase OXA-164 isolated from tracheal secretion of patient in presence of Tazobactam by vitek 2 system
[47] = test system: Acinetobacter baumannii; test: Antimicrobial activity against Acinetobacter baumannii isolate M expressing beta-lactamase OXA-58 isolated from tracheal secretion of patient in presence of Tazobactam by vitek 2 system
[48] = test system: Acinetobacter baumannii; test: Antimicrobial activity against Acinetobacter baumannii isolate C expressing beta-lactamase OXA-164 isolated from tracheal secretion of patient in presence of Tazobactam by vitek 2 system
[49] = test system: Acinetobacter baumannii; test: Antimicrobial activity against Acinetobacter baumannii isolate L expressing beta-lactamase OXA-58 isolated from tracheal secretion of patient in presence of Sulbactam by vitek 2 system
[50] = test system: Acinetobacter baumannii; test: Antimicrobial activity against Acinetobacter baumannii isolate J expressing beta-lactamase OXA-58 isolated from bedsore in presence of Sulbactam by vitek 2 system
[51] = test system: Acinetobacter baumannii; test: Antimicrobial activity against Acinetobacter baumannii isolate E expressing beta-lactamase OXA-164 isolated from tracheal secretion of patient in presence of Sulbactam by vitek 2 system
[52] = test system: Acinetobacter baumannii; test: Antimicrobial activity against Acinetobacter baumannii isolate H expressing beta-lactamase OXA-58 isolated from tracheal secretion of patient in presence of Sulbactam by vitek 2 system
[53] = test system: Acinetobacter baumannii; test: Antimicrobial activity against Acinetobacter baumannii isolate F expressing beta-lactamase OXA-164 isolated from tracheostoma of patient in presence of Sulbactam by vitek 2 system
[54] = test system: Acinetobacter baumannii; test: Antimicrobial activity against Acinetobacter baumannii isolate I expressing beta-lactamase OXA-58 isolated from tracheal secretion of patient in presence of Sulbactam by vitek 2 system
[55] = test system: Acinetobacter baumannii; test: Antimicrobial activity against Acinetobacter baumannii isolate G expressing beta-lactamase OXA-58 isolated from tracheal secretion of patient in presence of Sulbactam by vitek 2 system
[56] = test system: Acinetobacter baumannii; test: Antimicrobial activity against Acinetobacter baumannii isolate A expressing beta-lactamase OXA-164 isolated from tracheal secretion of patient in presence of Sulbactam by vitek 2 system
[57] = test system: Acinetobacter baumannii; test: Antimicrobial activity against Acinetobacter baumannii isolate B expressing beta-lactamase OXA-164 isolated from tracheal secretion of patient in presence of Sulbactam by vitek 2 system
[58] = test system: Acinetobacter baumannii; test: Antimicrobial activity against Acinetobacter baumannii isolate C expressing beta-lactamase OXA-164 isolated from tracheal secretion of patient in presence of Sulbactam by vitek 2 system
[59] = test system: Acinetobacter baumannii; test: Antimicrobial activity against Acinetobacter baumannii isolate D expressing beta-lactamase OXA-164 isolated from tracheal secretion of patient in presence of Sulbactam by vitek 2 system
[60] = test system: Acinetobacter baumannii; test: Antimicrobial activity against Acinetobacter baumannii isolate K expressing beta-lactamase OXA-58 isolated from blood culture of patient in presence of Sulbactam by vitek 2 system
[61] = test system: Acinetobacter baumannii; test: Antimicrobial activity against Acinetobacter baumannii isolate M expressing beta-lactamase OXA-58 isolated from tracheal secretion of patient in presence of Sulbactam by vitek 2 system

Compound: C[C@@H](O)[C@H]1C(=O)N2C(C(=O)O)=C(S[C@@H]3CN[C@H](C(=O)N(C)C)C3)[C@H](C)[C@H]12 [MEROPENEM]
- MIC [1]: > 32 mg/L
- MIC [2]: 8 mg/L (≈ 20.9 µM)
- MIC [3]: 8 mg/L (≈ 20.9 µM)
- MIC [4]: 32 mg/L (≈ 83.4 µM)
- MIC [5]: 8 mg/L (≈ 20.9 µM)
- MIC [6]: ≥ 64 mg/L
- MIC [7]: ≥ 64 mg/L
- MIC [8]: 0.032 mg/L (≈ 0.0834 µM)
- MIC [9]: 8 mg/L (≈ 20.9 µM)
- MIC [10]: 8 mg/L (≈ 20.9 µM)
- MIC [11]: 32 mg/L (≈ 83.4 µM)
- MIC [12]: > 32 mg/L
- MIC [13]: ≥ 64 mg/L
- MIC [14]: ≥ 16 mg/L
- MIC [15]: ≥ 64 mg/L
- MIC [16]: ≥ 16 mg/L
- MIC [17]: 8 mg/L (≈ 20.9 µM)
- MIC [18]: 16 mg/L (≈ 41.7 µM)
- MIC [19]: ≥ 64 mg/L
- MIC [20]: 32 mg/L (≈ 83.4 µM)
- MIC [21]: ≥ 64 mg/L
- MIC [22]: 4 mg/L (≈ 10.4 µM)
- MIC [23]: 0.012 mg/L (≈ 0.0313 µM)
- MIC [24]: 8 mg/L (≈ 20.9 µM)
- MIC [25]: 8 mg/L (≈ 20.9 µM)
- MIC [26]: > 32 mg/L
- MIC [27]: 0.032 mg/L (≈ 0.0834 µM)
- MIC [28]: 32 mg/L (≈ 83.4 µM)
- MIC [29]: 2 mg/L (≈ 5.22 µM)
- MIC [30]: 0.25 mg/L (≈ 0.652 µM)
- MIC [31]: 0.19 mg/L (≈ 0.495 µM)
- MIC [32]: ≥ 64 mg/L
- MIC [33]: 32 mg/L (≈ 83.4 µM)
- MIC [34]: 4 mg/L (≈ 10.4 µM)
- MIC [35]: 8 mg/L (≈ 20.9 µM)

- MIC [2]: inactive
- MIC [36]: inactive
- MIC [3]: inactive
- MIC [5]: inactive
- MIC [9]: inactive
- MIC [10]: inactive
- MIC [37]: inactive
- MIC [38]: inactive
- MIC [14]: inactive
- MIC [16]: inactive
- MIC [39]: inactive
- MIC [17]: inactive
- MIC [40]: inactive
- MIC [41]: inactive
- MIC [42]: inactive
- MIC [22]: inactive
- MIC [43]: inactive
- MIC [24]: inactive
- MIC [44]: inactive
- MIC [45]: inactive
- MIC [46]: inactive
- MIC [47]: inactive
- MIC [29]: inactive
- MIC [34]: inactive
- MIC [35]: inactive
- MIC [48]: inactive
Compound: CCN1CCN(C(=O)N[C@@H](C(=O)N[C@@H]2C(=O)N3[C@@H]2SC(C)(C)[C@@H]3C(=O)O)c2ccccc2)C(=O)C1=O

- MIC [49]: inactive
- MIC [50]: inactive
- MIC [51]: inactive
- MIC [52]: inactive
- MIC [53]: inactive
- MIC [54]: inactive
- MIC [55]: inactive
- MIC [56]: inactive
- MIC [57]: inactive
- MIC [58]: inactive
- MIC [59]: inactive
- MIC [60]: inactive
- MIC [61]: inactive
Compound: CC1(C)S[C@@H]2[C@H](NC(=O)[C@H](N)c3ccccc3)C(=O)N2[C@H]1C(=O)O
